From paper PMC7994622, “Eryptosis and Malaria: New Experimental Guidelines and Re-Evaluation of the Antimalarial Potential of Eryptosis Inducers” (Frontiers in Cellular and Infection Microbiology, 2021)
Entries after “also recorded” stand apart in the source; their conditions may differ. Where a name gives a salt, the structure may show the parent alone. Read-outs that look alike come from different tables or passages of the source. Each block holds one compound with its values, some of them ahead of it.

What was measured:
[1] = system: P. falciparum; conditions: cited from earlier work
[2] = system: P. falciparum-infected erythrocytes; assay: Eryptosis assay by flow cytometry on P. falciparum-infected erythrocytes; format: cell-based, human; conditions: 4 h in iRPMI, 4% hematocrit, 1, 5, 10 μM (ionomycin 1 μM), PS exposure, cell size, intracellular calcium, hemolysis, significant changes
Method: (§1) Use of human erythrocytes was approved by the La Trobe University Research Ethics Committee (ethics number HEC17‐013) and an Australian Red Cross Blood Service Agreement (Deed 19-05VIC-01). Red blood cell populations are intrinsically heterogeneous and variable between donors, therefore each experiment presented in this study was conducted a minimum of three independent times, each with a different batch of blood. Human red cells were processed as soon as possible upon collection to minimize erythrocyte aging. Naïve (non-infected) erythrocytes and Plasmodium falciparum 3D7-infected erythrocytes were cultured at 37°C, in low oxygen conditions (1% O2, 5% CO2, 94% N2), at 4% or 0.4% hematocrit, in incomplete RPMI media (iRPMI: RPMI 1640 HEPES, 50 mg/L hypoxanthine, 10 mg/L gentamicin, pH 6.74), complete RPMI media (cRPMI: incomplete RPMI supplemented with 2.25 g/L sodium bicarbonate and 5 g/L AlbuMAX II), or Ringer solution (1mM CaCl2, 5mM glucose, 32 mM HEPES pH 7.4, 5 mM KCl, 1mM MgSO4, 125mM NaCl). P. falciparum standard in vitro culture conditions were conducted as previously described ([Trager and Jensen, 1976]).
(§2) Drug assays measuring eryptosis were carried out in 100 μl or 500 μl of culture when using 4% or 0.4% hematocrit conditions, respectively. DMSO, the vehicle, was used for the no-drug conditions. Cells were incubated at 37°C, in low oxygen conditions for 1 h to 48 h depending on the assay. Each experiment was performed in triplicate unless otherwise indicated and cells were analyzed by flow cytometry. […] Cells were washed in staining buffer (5 mM CaCl2, 5 mM glucose, 32 mM HEPES pH7.4, 5 mM KCl, 1 mM MgSO4, 125 mM NaCl), resuspended in 0.3 μM of intracellular calcium dye x-Rhod-1 AM (Invitrogen) and incubated in the dark at 37°C for 30 min. Subsequently, cells were washed in staining buffer and incubated with Annexin V-PE (1:20 dilution in staining buffer; BD Bioscience) at 37°C for 20 min in the dark for the staining of surface-exposed phosphatidylserine. Cells were resuspended in 200 μl staining buffer and analyzed within the hour using a CytoFLEX S flow cytometer (Beckman Coulter). 100,000 total events were recorded for each condition at a flow rate of 10 μl/min. Data were analyzed using FlowJo V10. For PS exposure measure, gating was set using data obtained with naïve erythrocytes DMSO control. Infected cells were gated using Hoechst fluorescence. The percentage of Annexin V-PE positive cells, the mean forward scatter height (FSC-H) and mean x-Rhod-1 fluorescence area (PE-A) were acquired for naïve and infected-erythrocytes.

[3] = system: naïve erythrocytes; assay: Eryptosis assay by flow cytometry (PS exposure, cell size, intracellular calcium) on naïve erythrocytes; format: cell-based, human; conditions: for Eryptosis hallmarks, naïve erythrocytes: 4 h in iRPMI, 1, 5, 10 μM (ionomycin 1 μM), PS exposure, cell size, intracellular calcium, hemolysis, significant changes
Method: as §1, §2

[4] = system: P. berghei; conditions: cited from earlier work
[5] = system: erythrocytes; conditions: cited from earlier work
[6] = system: P. falciparum; assay: Parasite growth inhibition assay (SYBR Gold, 72 h); format: cell-based, Plasmodium falciparum 3D7
Method: as §1
Compound-induced parasite growth inhibition was measured as previously described ([Morahan et al., 2020]). Briefly, an asynchronous parasite culture at 0.25% parasitemia and 2% hematocrit was incubated in a 96-well plate with a two-fold serial dilution of compound over 72 h in standard culture conditions (cRPMI, 37°C, low oxygen). Compounds (at 10 mM in DMSO) were added to the first well of the dilution series to produce a 50 µM drug concentration (and 0.5% (v/v) DMSO) and diluted two-fold until a concentration of 0.19 nM compound was reached. Each condition was conducted in triplicates, subject to a freeze/thaw cycle and incubated with the DNA intercalant SYBR Gold following manufacturer instructions (SYBR™ Gold Nucleic Acid Stain, Invitrogen). The average fluorescence between triplicates was measured at 495 nm using a CLARIOstar® microplate reader and analyzed as a proxy of parasite replication.

[7] = system: naïve erythrocytes; assay: Hemolysis assay (absorbance 405 nm) on naïve erythrocytes; format: cell-based, human; conditions: 48 h
From the text: Absorbance of culture media alone was considered as baseline.

[8] = Plasmodium falciparum, asynchronous culture, cRPMI, up to 50 µM, N=5, read-out: P. falciparum IC50
[9] = asynchronous culture, cRPMI, up to 50 µM, N=5, read-out: P. falciparum IC50
[10] = 1 μM, 1 h, iRPMI, 4% hematocrit

Structure (SMILES): CCCCc1oc2ccccc2c1C(=O)c1cc(I)c(OCCN(CC)CC)c(I)c1 [Amiodarone, amiodarone HCl]
Effect on P. falciparum: parasitemia ([1]; Pf in vitro, ref Bobbala et al., 2010b): Reduced parasitemia | Eryptosis hallmarks, P. falciparum-infected erythrocytes [2]: Ns | Eryptosis hallmarks, naïve erythrocytes ([3]; 4% hematocrit): ↑ Calcium (5 μM) | Effect on P. berghei: parasitemia ([4]; Pb in vivo, ref Bobbala et al., 2010b): Reduced parasitemia | Effect on P. berghei: mice survival ([4]; Pb, ref Bobbala et al., 2010b): increased mice survival | Published eryptosis induction concentration ([5]; naïve erythrocytes, ref Nicolay et al., 2007): 5 µM, ([Nicolay et al., 2007]) | Published eryptosis induction concentration ([5]; naïve erythrocytes, ref Nicolay et al., 2007, listed as amiodarone): 5 µM

IC50 [6, 8]: 12 µM | IC50 ([6]; asynchronous culture, cRPMI, up to 50 µM, N=5, listed as cordycepin, read-out: P. falciparum IC50): > 10 µM | IC50 [6, 9]: 12.1 µM
Structure (SMILES): Nc1ncnc2c1ncn2[C@@H]1O[C@H](CO)C[C@H]1O [Cordycepin, cordycepin]
Eryptosis hallmarks, P. falciparum-infected erythrocytes [2]: Ns | Eryptosis hallmarks, naïve erythrocytes ([3]; 4% hematocrit): Ns | Published eryptosis induction concentration ([5]; mouse erythrocytes, ref Lui et al., 2007): 31 µM, ([Lui et al., 2007]) | Published eryptosis induction concentration ([5]; mouse erythrocytes, ref Lui et al., 2007, listed as cordycepin): 31 µM

Structure (SMILES): CCN(CC)CCCC(C)Nc1ccnc2cc(Cl)ccc12 (stereo not drawn) [chloroquine]
IC50 ([6]; Plasmodium falciparum, read-out: P. falciparum IC50, asynchronous culture, cRPMI, 72 h): 0.022 µM

Structure (SMILES): CC(C)(C)CC(C)(C)c1ccc(OCCOCC[N+](C)(C)Cc2ccccc2)cc1 [Benzethonium, benzethonium chloride]
Eryptosis hallmarks, P. falciparum-infected erythrocytes [2]: Ns * | Eryptosis hallmarks, naïve erythrocytes ([3]; 4% hematocrit): Ns

Structure (SMILES): C[C@H](CCC(=O)O)C[C@H](C)C[C@H](C)C(=O)/C=C(\O)[C@H](C)C[C@H](C)C/C=C/[C@@H](C)[C@@H](O)[C@@H](C)[C@@H](O)C[C@@H]1CC[C@@](C)([C@H]2CC[C@@](C)([C@@H](C)O)O2)O1 [Ionomycin, ionomycin]
hemolysis ([7]; 1 μM, Ringer or iRPMI with addition of Albumax, 4% hematocrit): abolish ionomycin-induced hemolysis | hemolysis (OD405) ([7]; 1 μM, Ringer, 4% hematocrit): 20.5 | hemolysis (OD405) ([7]; 1 μM, iRPMI, 4% hematocrit): 5.5 | Eryptosis hallmarks, P. falciparum-infected erythrocytes [2]: ↑ PS exposure ↓ Cell Size (1 μM) | Eryptosis hallmarks, P. falciparum-infected erythrocytes ([2]; listed as ionomycin): significant increase of PS exposure and a decrease in cell size | increase in PS exposure compared to the no-drug condition ([3]; 1 μM, 1 h, Ringer solution, 4% hematocrit): 62 fold | PS exposure ([3]; 1 μM, 1 h, Ringer, 4% hematocrit): 6.6% | PS exposure [3, 10]: 4.4% | increase in PS exposure compared to the no-drug condition [3, 10]: 45 fold | PS exposure ([3]; 1 μM, 24 h, Ringer+Albumax, 4% hematocrit): 13.2% | PS exposure ([3]; 1 μM, 48 h, Ringer+Albumax, 4% hematocrit): 22% | PS exposure ([3]; 1 μM, 48 h, Ringer, 4% hematocrit): 24% | PS exposure ([3]; 1 μM, 48 h, iRPMI+Albumax, 4% hematocrit): 15% | PS exposure ([3]; 1 μM, 48 h, iRPMI+Albumax, 4% hematocrit, listed as ionomycin): 14.6% | PS exposure ([3]; 1 μM, 48 h, iRPMI, 4% hematocrit): 23% | Eryptosis hallmarks, naïve erythrocytes ([3]; 4% hematocrit): ↑ PS exposure ↓ Cell Size (1 μM) | Eryptosis hallmarks, naïve erythrocytes ([3]; 4% hematocrit, listed as ionomycin): significant increase of PS exposure and a decrease in cell size

IC50 [6, 9]: 65.8 µM
Structure (SMILES): O=c1cc(-c2ccc(O)cc2)oc2cc(O)cc(O)c12 [Apigenin, apigenin]
IC50 ([1]; in vitro, ref Fallatah and Georges, 2017, read-out: P. falciparum IC50, previously published): 36 µM | Eryptosis hallmarks, P. falciparum-infected erythrocytes [2]: Ns | Eryptosis hallmarks, naïve erythrocytes ([3]; 4% hematocrit): Ns | Effect on P. berghei: parasitemia ([4]; Pb, ref Amiri et al., 2018): Decreased parasitemia (Pb) ([Amiri et al., 2018]) | Published eryptosis induction concentration ([5]; naïve erythrocytes, ref Zbidah et al., 2012): 15 µM, ([Zbidah et al., 2012]) | Published eryptosis induction concentration ([5]; naïve erythrocytes, ref Zbidah et al., 2012, listed as apigenin): 15 µM

IC50 ([6]; Plasmodium falciparum, asynchronous culture, cRPMI, read-out: P. falciparum IC50): 0.012 µM
Structure (SMILES): C[C@@H]1CC[C@H]2[C@@H](C)C(=O)O[C@@H]3O[C@@]4(C)CC[C@@H]1[C@]32OO4 [artemisinin]

IC50 [6, 8]: ~2 µM | IC50 [6, 9]: ≤ 2 µM
Structure (SMILES): C=C1C(=O)[C@]23[C@H](O)[C@H]1CC[C@H]2[C@@]12CO[C@]3(O)[C@@H](O)[C@@H]1C(C)(C)CC[C@@H]2O [Oridonin, oridonin]
Eryptosis hallmarks, P. falciparum-infected erythrocytes [2]: Ns | Eryptosis hallmarks, P. falciparum-infected erythrocytes ([2]; listed as oridonin): did not induce statistically significant changes; also recorded: no significant increase | Eryptosis hallmarks, naïve erythrocytes ([3]; 4% hematocrit): Ns | Eryptosis hallmarks, naïve erythrocytes ([3]; 4% hematocrit, listed as oridonin): did not induce statistically significant changes; also recorded: no significant increase | Published eryptosis induction concentration ([5]; naïve erythrocytes, ref Jilani et al., 2011): 25 µM, ([Jilani et al., 2011]) | Published eryptosis induction concentration ([5]; naïve erythrocytes, ref Jilani et al., 2011, listed as oridonin): 25 µM

Structure (SMILES): CNC(=O)c1cc(Oc2ccc(NC(=O)Nc3ccc(Cl)c(C(F)(F)F)c3)cc2)ccn1 [BAY 43-9006, Sorafenib]
hemolysis ([7]; 10 µM, Ringer, 0.4% hematocrit): significantly induced hemolysis | hemolysis ([7]; 10 µM, Ringer, 4% hematocrit): not | hemolysis ([7]; 10 µM, cRPMI, 4% hematocrit): not | Eryptosis hallmarks, P. falciparum-infected erythrocytes [2]: Ns | percentage of PS-exposing cells ([3]; 10 µM, 48 h, Ringer solution, 0.4% hematocrit): 41% | percentage of PS-exposing cells ([3]; 10 µM, 48 h, Ringer solution, 4% hematocrit): 10% | PS exposure ([3]; 10 µM, 48 h, cRPMI, 4% hematocrit): no significant increase | Eryptosis hallmarks, naïve erythrocytes ([3]; 4% hematocrit): Ns | IC50 [6, 8]: < 10 µM | IC50 [6, 9]: 7.48 µM
